The assay concerns the target T1, human GPR119 (Homo sapiens, UniProt Q8TDV5).
T1 construct: host or cells: HEK293-CRE beta-lactamase cells
T1 sequence (Q8TDV5 1-335): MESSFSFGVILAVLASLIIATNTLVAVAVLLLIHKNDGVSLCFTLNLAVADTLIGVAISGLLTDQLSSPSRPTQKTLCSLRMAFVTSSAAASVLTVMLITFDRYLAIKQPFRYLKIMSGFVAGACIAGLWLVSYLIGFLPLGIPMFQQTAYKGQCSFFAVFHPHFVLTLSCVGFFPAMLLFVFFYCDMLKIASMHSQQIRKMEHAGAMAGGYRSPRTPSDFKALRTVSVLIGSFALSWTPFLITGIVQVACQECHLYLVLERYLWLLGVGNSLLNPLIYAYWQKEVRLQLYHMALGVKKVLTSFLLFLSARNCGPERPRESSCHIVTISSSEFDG
Nature of the assay: Beta-lactamase functional assay (hGPR119 HEK293-CRE beta-lactamase reporter). The assay is classed as cell-based. As to conditions: one line per run; for EC50: hGPR119 HEK293-CRE beta-lactamase cells, 16 hours incubation, read-out: Human B-lactamase Functional EC50; for Emax: percent of maximal activity relative to standard GPR119 agonist (WO2005121121) at 10 microM, read-out: Intrinsic Activity* (%) (B-lactamase). On the procedure: The assay for GPR119 agonists utilizes a cell-based (hGPR119 HEK293-CRE beta-lactamase) reporter construct where agonist activation of human GPR119 is coupled to beta-lactamase production via a cyclic AMP response element (CRE). GPR119 activity is then measured utilizing a FRET-enabled beta-lactamase substrate, CCF4-AM (Live Blazer FRET-B/G Loading kit, Invitrogen cat #K1027). Specifically, hGPR119-HEK-CRE-beta-lactamase cells (Invitrogen 2.5×10^7/mL) were removed from liquid nitrogen storage, and diluted in plating medium (Dulbecco's modified Eagle medium high glucose (DMEM; Gibco Cat #11995-065), 10% heat inactivated fetal bovine serum (HIFBS; Sigma Cat #F4135), 1×MEM Nonessential amino acids (Gibco Cat #15630-080), 25 mM HEPES pH 7.0 (Gibco Cat #15630-080), 200 nM potassium clavulanate (Sigma Cat #P3494). The cell concentration was adjusted using cell plating medium and 50 microL of this cell suspension ([…]) was added into each well of a black, clear bottom, poly-d-lysine coated 384-well plate (Greiner Bio-One cat #781946) and incubated at 37 degrees Celsius in a humidified environment containing 5% carbon dioxide. After 4 hours the plating medium was removed and replaced with 40 microL of assay medium (Assay medium is plating medium without potassium clavulanate and HIFBS). Varying concentrations of each compound to be tested was then added in a volume of 10 microL (final DMSO≦0.5%) and the cells were incubated for 16 hours at 37 degrees Celsius in a humidified environment containing 5% carbon dioxide. Plates were removed from the incubator and allowed to equilibrate to room temperature for approximately 15 minutes. 10 microL of 6×CCF4/AM working dye solution (prepared according to instructions in the Live Blazer FRET-B/G Loading kit, Invitrogen cat #K1027) was added per well and incubated at room temperature for 2 hours in the dark. Fluorescence was measured on an EnVision fluorimetric plate reader, excitation 405 nm, emission 460 nm/535 nm. EC50 determinations were made from agonist-response curves analyzed with a curve fitting program using a 4-parameter logistic dose-response equation.

A word on the EC50: it is the concentration that produces a half-maximal response. Consider `CC(C)OC(=O)N1CCC(Oc2ncnc(N3Cc4cnn(C)c4C3)c2C#N)CC1` [Example 3, Isopropyyl 4-{[5-cyano-6-(1-methyl-4,6-dihydropyrrolo[3,4-c]pyrazol-5(1H)-yl)pyrimidin-4-yl]oxy}piperidine-1-carboxylate], for which the EC50 was determined as 2050 nM and the Emax came out at 107%.

As for `Cc1c(OC2CCN(C(=O)OC(C)C)CC2)ncnc1N1Cc2cnn(C)c2C1` [Example 2, Isopropyyl 4-{[5-methyl-6-(1-methyl-4,6-dihydropyrrolo[3,4-c]pyrazol-5(1H)-yl)pyrimidin-4-yl]oxy}piperidine-1-carboxylate], the EC50 worked out at 662 nM and the Emax turned out to be 103%.

Source of the values: patent publication US20130072427A1, “GPR 119 MODULATORS” (Pfizer Inc., priority 2009, published 2013).
